The record followed here is EP4671247A1, “SUBSTITUTED PYRAZOLOPYRIMIDINE COMPOUND AND PHARMACEUTICAL USE THEREOF” (Japan Tobacco Inc., priority 2023, dated 2024).

pIC50: −log10 of the molar value. Read-outs that look alike come from different tables or passages of the source.

In this experiment the target is T1, NLRP3 inflammasome (Homo sapiens, UniProt Q96P20).
T1 construct: host or cells: THP1-Null cells (PMA-differentiated, LPS-primed, nigericin-stimulated)
As to the kind of experiment: Evaluation of NLRP3 inflammasome inhibitory activity (inhibition of IL-1β production in LPS/Nigericin-stimulated THP1-Null cells, AlphaLISA). It counts as cell-based. The note with it: for pIC50: PMA, 1 µg/mL Lipopolysaccharides 3 hours, Nigericin 7.5 µmol/L 1.5 hours; for inhibition at 24 µM: test compound at 24 µM; for inhibition at 2.4 µM: test compound at 2.4 µM. The protocol: The NLRP3 inflammasome inhibitory activity of test compounds were evaluated on the basis of the inhibitory activity of the IL-1β production in THP1-Null cells (Product Number: thp-null, InvivoGen).
The supernatant of the culture was removed, and thereto was added media for assay (25 µL/well) containing 1 µg/mL Lipopolysaccharides (Product Number: L2654, Sigma-Aldrich (registered trademark)). […] The supernatant of the culture was removed. […] A solution containing a test compound (20 µL/well) was added to test compound-setting wells. […] The supernatant of the culture was cryonically stored (set at -20°C) until measurement of IL-1β.
The amount of IL-1β in the culture supernatant was quantitated with AlphaLISA (registered trademark) Human IL-1β Detection Kit (Product Number: AL220C, Perkin Elmer). Fluorescence intensity was measured with a microplate reader EnSpier (Model number: 2300-00J, Perkin Elmer) or EnSight (Model number: HH34000000, Perkin Elmer) according to procedure manuals attached thereto. Inhibition rates of the test compound-setting wells were calculated on the basis of 100% for the blank-setting wells and 0% for the control-setting wells.

The mark [1] stands for this setting: IL-1β production in THP1-Null cells, read-out: IC50.
Where [2] appears, read: IL-1β production in THP1-Null cells.

T1 sequence (Q96P20 whole entry): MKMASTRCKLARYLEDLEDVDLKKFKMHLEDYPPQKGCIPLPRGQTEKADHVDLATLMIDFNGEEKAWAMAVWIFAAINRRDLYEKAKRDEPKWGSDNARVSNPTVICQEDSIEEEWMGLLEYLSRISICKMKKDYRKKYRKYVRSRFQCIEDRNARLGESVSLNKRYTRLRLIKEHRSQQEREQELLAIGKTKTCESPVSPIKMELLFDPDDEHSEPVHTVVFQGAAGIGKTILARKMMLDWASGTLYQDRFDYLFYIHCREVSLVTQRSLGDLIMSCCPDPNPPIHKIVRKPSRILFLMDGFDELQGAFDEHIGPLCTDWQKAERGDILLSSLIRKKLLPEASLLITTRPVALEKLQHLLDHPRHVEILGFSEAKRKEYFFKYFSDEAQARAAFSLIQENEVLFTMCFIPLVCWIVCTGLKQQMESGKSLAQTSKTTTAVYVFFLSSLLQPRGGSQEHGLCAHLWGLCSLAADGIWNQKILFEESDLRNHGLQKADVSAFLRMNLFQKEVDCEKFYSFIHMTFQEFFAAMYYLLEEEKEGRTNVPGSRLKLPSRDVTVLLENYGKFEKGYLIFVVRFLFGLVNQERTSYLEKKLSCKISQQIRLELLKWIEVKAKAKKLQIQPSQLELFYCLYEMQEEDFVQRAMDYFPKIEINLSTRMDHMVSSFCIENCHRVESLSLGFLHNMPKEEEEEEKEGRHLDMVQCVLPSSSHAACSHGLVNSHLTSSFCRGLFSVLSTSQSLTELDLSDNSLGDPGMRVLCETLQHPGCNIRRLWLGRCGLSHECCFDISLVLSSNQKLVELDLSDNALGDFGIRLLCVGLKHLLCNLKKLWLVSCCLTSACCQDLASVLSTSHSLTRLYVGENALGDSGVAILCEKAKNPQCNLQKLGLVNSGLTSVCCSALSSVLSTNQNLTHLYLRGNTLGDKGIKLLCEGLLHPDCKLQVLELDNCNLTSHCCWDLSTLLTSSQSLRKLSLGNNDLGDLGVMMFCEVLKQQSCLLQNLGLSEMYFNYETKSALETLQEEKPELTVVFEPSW

On to `Cc1cc(OC(F)F)cc(C)c1-n1cc2c(=O)[nH]c([C@H](C)O)nc2n1` (single isomer, unassigned) [Example 166], for which the pIC50 under setting [1] was 5.89. For the compound `Cc1cc(C2CC2)cc(C)c1-n1cc2c(=O)[nH]c(C(O)C(F)F)nc2n1` (single isomer, unassigned) [Example 169], the pIC50 under setting [2] was 7.59. Still for that read-out and setting: the figure for `Cc1cc(C2CC2)cc(C)c1-n1cc2c(=O)[nH]c(C(O)C(F)F)nc2n1` (single isomer, unassigned) [Example 170] is 6.29; for `Cc1cc(OC(F)F)cc(C)c1-n1cc2c(=O)[nH]c([C@@H]3C[C@H]3F)nc2n1` (single isomer, unassigned) [Example 172] it is 8.10; for `Cc1cc(OC(F)F)cc(C)c1-n1cc2c(=O)[nH]c(C3CC3F)nc2n1` (single isomer, unassigned) [Example 173] it is 7.82. For the compound `Cc1cc(OC(F)F)cc(C)c1-n1cc2c(=O)[nH]c(C3(O)CCOCC3F)nc2n1` (single isomer, unassigned) [Example 174], the pIC50 under setting [1] is 7.52.

`Cc1cc(OC(F)F)cc(C)c1-n1cc2c(=O)[nH]c(C3CCOCC3F)nc2n1` (single isomer, unassigned) [Example 176] gave a pIC50 under setting [2] of 7.12.

In turn, `Cc1cc(OC(F)F)cc(C)c1-n1cc2c(=O)[nH]c(C3CCOCC3F)nc2n1` (single isomer, unassigned) [Example 177] showed a negative logarithm of the IC50 (pIC50) under setting [2] of 7.62. As to `Cc1cc(C2CC2)cc(C)c1-n1cc2c(=O)[nH]c(C3CCOCCO3)nc2n1` (single isomer, unassigned) [Example 178, 2-(4-cyclopropyl-2,6-dimethylphenyl)-6-(1,4-dioxepan-5-yl)-2,5-dihydro-4H-pyrazolo[3,4-d]pyrimidin-4-one], under setting [1], the pIC50 was 7.96. In the case of `Cc1cc(C2CC2)cc(C)c1-n1cc2c(=O)[nH]c(C3CCOCCO3)nc2n1` (single isomer, unassigned) [Example 179, 2-(4-cyclopropyl-2,6-dimethylphenyl)-6-(1,4-dioxepan-5-yl)-2,5-dihydro-4H-pyrazolo[3,4-d]pyrimidin-4-one], the negative logarithm of the IC50 (pIC50) under setting [1] was 7.29. With `Cc1cc(OC(F)F)cc(C)c1-n1cc2c(=O)[nH]c(C3COCC3F)nc2n1` (single isomer, unassigned) [Example 182], the negative-log IC50 (pIC50) under setting [2] is 8.10.

`Cc1cc(OC(F)F)cc(C)c1-n1cc2c(=O)[nH]c(C3COCC3F)nc2n1` (single isomer, unassigned) [Example 183]: under setting [2], the negative-log IC50 (pIC50) was 7.46. Take `Cc1cc(C(C)(F)F)cc(C)c1-n1cc2c(=O)[nH]c(C3CCOCCO3)nc2n1` (single isomer, unassigned) [Example 187]: the pIC50 under setting [2] was 7.17. `Cc1cc(C(C)(F)F)cc(C)c1-n1cc2c(=O)[nH]c(C3CCOCCO3)nc2n1` (single isomer, unassigned) [Example 188]: under setting [2], the negative logarithm of the IC50 (pIC50) is 6.72. In turn, `Cc1cc(OC(F)F)cc(C)c1-n1cc2c(=O)[nH]c(C3CCOCCO3)nc2n1` (single isomer, unassigned) [Example 193] had a pIC50 under setting [2] of 7.57. On to `Cc1cc(OC(F)F)cc(C)c1-n1cc2c(=O)[nH]c(C3CCOCCO3)nc2n1` (single isomer, unassigned) [Example 194], for which the negative logarithm of the IC50 (pIC50) under setting [2] was 7.00.

`Cc1ccccc1-n1cc2c(=O)[nH]c(C3CCCC3)nc2n1` [Example 1]: the negative logarithm of the IC50 (pIC50) under setting [1] is 5.64. Regarding `Cc1ccccc1-n1cc2c(=O)[nH]c(C3=CCCC3)nc2n1` [Example 2], the negative-log IC50 (pIC50) under setting [1] was 5.89. As for `Cc1ccc(-n2cc3c(=O)[nH]c(C4CC4)nc3n2)c(C)c1` [Example 3], the negative-log IC50 (pIC50) under setting [1] was 6.62. Take `Cc1ccc(-n2cc3c(=O)[nH]c(C)nc3n2)c(C)c1` [Example 4]: under setting [1], the pIC50 was 6.27. In the case of `COCc1nc2nn(-c3ccc(C)cc3C)cc2c(=O)[nH]1` [Example 5], the pIC50 under setting [1] was 6.24. Regarding `Cc1ccc(-n2cc3c(=O)[nH]c(CC(C)C)nc3n2)c(C)c1` [Example 6], the pIC50 under setting [1] is 6.37.

On to `Cc1ccc(-n2cc3c(=O)[nH]c(C(F)(F)F)nc3n2)c(C)c1` [Example 7], for which the inhibition at 30 µM (test compound at 30 µM, IL-1β production in THP1-Null cells) was 44%.

In the case of `CCc1nc2nn(-c3ccc(C)cc3C)cc2c(=O)[nH]1` [Example 8], the negative-log IC50 (pIC50) under setting [1] was 6.64. As to `COCCc1nc2nn(-c3ccc(C)cc3C)cc2c(=O)[nH]1` [Example 9], the pIC50 under setting [1] was 5.96. On to `Cc1ccc(-n2cc3c(=O)[nH]c(C(F)F)nc3n2)c(C)c1` [Example 10], for which the negative-log IC50 (pIC50) under setting [1] was 4.89. In the case of `CCOc1nc(C)nc2nn(-c3ccc(C)cc3C)cc12` [Example 11], the inhibition at 24 µM under setting [2] was determined as 43%. The same measure, in the same setting: the figure for `COc1nc(C)nc2nn(-c3ccc(C)cc3C)cc12` [Example 12] is 26%; for `Cc1ccc(-n2cc3c(=O)n(C)c(C)nc3n2)c(C)c1` [Example 13, 2-(2,4-dimethylphenyl)-5,6-dimethyl-2,5-dihydro-4H-pyrazolo[3,4-d]pyrimidin-4-one] it is 3%. For `COC(=O)Cn1c(C)nc2nn(-c3ccc(C)cc3C)cc2c1=O` [Example 14], the inhibition at 2.4 µM under setting [2] is -13%. The same measure, in the same setting: the figure for `Cc1ccc(-n2cc3c(=O)n(CC(=O)O)c(C)nc3n2)c(C)c1` [Example 15] is -3%; for `Cc1ccc(-n2cc3c(=O)n(CC(=O)N(C)C)c(C)nc3n2)c(C)c1` [Example 16] it is -14%. `CNC(=O)Cn1c(C)nc2nn(-c3ccc(C)cc3C)cc2c1=O` [Example 17]: the inhibition at 2.4 µM under setting [2] is -15%. Regarding `Cc1nc2nn(-c3c(C)cc(Br)cc3C)cc2c(=O)[nH]1` [Example 18], for the setting “IC50, IL-1β production in THP1-Null cells”, the negative-log IC50 (pIC50) is 6.66. With `Cc1nc2nn(-c3c(C)cc(C4CC4)cc3C)cc2c(=O)[nH]1` [Example 19], the pIC50 under setting [1] is 6.77.

In the case of `Cc1cc(C2CC2)cc(F)c1-n1cc2c(=O)[nH]c(C3CC3)nc2n1` [Example 20], the negative-log IC50 (pIC50) under setting [1] was 7.89. As to `Cc1cc(C2CC2)cc(C)c1-n1cc2c(=O)[nH]c(C3CC3)nc2n1` [Example 21], under setting [1], the pIC50 is 7.92. Consider `Cc1cc(C2CC2)cc(C)c1-n1cc2c(=O)[nH]c(C3CCC3)nc2n1` [Example 22], for which the pIC50 under setting [1] is 7.92.

As for `CCc1nc2nn(-c3c(C)cc(C4CC4)cc3C)cc2c(=O)[nH]1` [Example 23], under setting [1], the negative-log IC50 (pIC50) is 7.62. `Cc1cc(C2CC2)ccc1-n1cc2c(=O)[nH]c(C3CC3)nc2n1` [Example 24]: the pIC50 under setting [1] was 7.33.

Consider `COCc1cc(C2CC2)ccc1-n1cc2c(=O)[nH]c(C3CC3)nc2n1` [Example 25], for which, under setting [1], the pIC50 was 7.36.

With `COc1cc(C2CC2)ccc1-n1cc2c(=O)[nH]c(C3CC3)nc2n1` [Example 26], the pIC50 under setting [1] is 7.12. Turning to `COCc1nc2nn(-c3c(C)cc(Br)cc3C)cc2c(=O)[nH]1` [Example 27], under setting [1], the negative-log IC50 (pIC50) is 7.54.

As to `Cc1cc(Br)cc(C)c1-n1cc2c(=O)[nH]c(C3(C#N)CC3)nc2n1` [Example 30], the negative-log IC50 (pIC50) under setting [1] is 6.55. Turning to `Cc1ccc(-n2cc3c(=O)[nH]c(C4CCOCC4)nc3n2)c(C)c1` [Example 33], the negative-log IC50 (pIC50) under setting [1] was 7.17. On to `Cc1ccc(-n2cc3c(=O)[nH]c(CCCS(C)(=O)=O)nc3n2)c(C)c1` [Example 37], for which the pIC50 under setting [1] was 5.96. Regarding `Cc1ccc(-n2cc3c(=O)[nH]c(CN4CCOCC4)nc3n2)c(C)c1` [Example 38], the inhibition at 2.4 µM under setting [2] is 40%.

As for `Cc1cc(C2CC2)cc(C)c1-n1cc2c(=O)[nH]c(C3COC3)nc2n1` [Example 39], the pIC50 under setting [1] was 7.80. For `Cc1cc(C2CC2)cc(C)c1-n1cc2c(=O)[nH]c(C3CCOCC3)nc2n1` [Example 42], the pIC50 under setting [1] was 8.40. Same read-out and setting: the figure for `COCc1nc2nn(-c3c(C)cc(C4CC4)cc3C)cc2c(=O)[nH]1` [Example 43] is 7.38; for `Cc1cc(C2CC2)cc(C)c1-n1cc2c(=O)[nH]c(C3(C)COC3)nc2n1` [Example 44] it is 7.33; for `Cc1cc(C2CC2)cc(C)c1-n1cc2c(=O)[nH]c(C3CC(F)(F)C3)nc2n1` [Example 45] it is 8.15.

For the compound `Cc1cc(Br)cc(C)c1-n1cc2c(=O)[nH]c(COCC3CCOCC3)nc2n1` [Example 46], the pIC50 under setting [1] is 6.85. Consider `Cc1cc(C2CC2)cc(C)c1-n1cc2c(=O)[nH]c(COCC3CCOCC3)nc2n1` [Example 47], for which the pIC50 under setting [1] is 6.74. Take `Cc1cc(C2CC2)cc(C)c1-n1cc2c(=O)[nH]c(C3(F)CC3)nc2n1` [Example 48]: the pIC50 under setting [1] is 7.64. Regarding `Cc1cc(C2CC2)cc(C)c1-n1cc2c(=O)[nH]c(C34CC(F)(C3)C4)nc2n1` [Example 49], the pIC50 under setting [1] was 7.62. Same read-out and setting: the figure for `Cc1cc(C2CC2)cc(C)c1-n1cc2c(=O)[nH]c(C34COC(C)(C3)C4)nc2n1` [Example 52] is 7.40; for `COc1cc(C)c(-n2cc3c(=O)[nH]c(C4CC4)nc3n2)c(C)c1` [Example 53] it is 6.85.

Take `Cc1cc(OC(F)F)cc(C)c1-n1cc2c(=O)[nH]c(C3CC3)nc2n1` [Example 54]: the negative logarithm of the IC50 (pIC50) under setting [1] is 7.48. On to `Cc1cc(C(F)(F)F)cc(C)c1-n1cc2c(=O)[nH]c(C3CC3)nc2n1` [Example 55], for which the negative logarithm of the IC50 (pIC50) under setting [1] is 7.51. Regarding `COCc1cc(C2CC2)cc(C)c1-n1cc2c(=O)[nH]c(C3CC3)nc2n1` [Example 58], under setting [1], the negative logarithm of the IC50 (pIC50) is 7.44.
